Results published in article PMC7038240 (Antimicrobial Agents and Chemotherapy, 2020).
Where two headings read alike, the source gives them in different places.

Assays:
Assay in all cases: microbe, parasite or virus in culture
Type in all cases: cell-based
P. aeruginosa = test system: P. aeruginosa
Excerpt: (§1) The antibacterial activity of cefepime-taniborbactam was compared to that of ceftazidime-avibactam, ceftolozane-tazobactam, and cefepime-tazobactam against a diverse panel of Enterobacterales and P. aeruginosa clinical isolates with defined β-lactamase subtypes (see Table S1 in the supplemental material). IMP-producing strains were excluded, as none of the BLI-protected cephalosporins inhibited IMP sufficiently to provide a clinically relevant rescue of the partner β-lactam, a characteristic also shared by approved BLI-protected carbapenems (meropenem-vaborbactam and imipenem-relebactam). […] The antibacterial activity of the cephalosporins alone was included to ascertain the level of potentiation by the partnered BLI. BLIs were tested at a fixed concentration of 4 μg/ml in all combinations except cefepime-tazobactam, where tazobactam was fixed at a concentration of 8 μg/ml ([38]). The collection comprised 143 clinical isolates collected from 2005 and 2018.
(§2) The in vitro antibacterial activity of the β-lactams alone or in combination with the BLIs was determined in cation-adjusted Mueller-Hinton broth (CAMHB) microdilution assays according to CLSI recommendations ([51]). […]. The inocula for the broth microdilution assays were prepared by the broth culture method ([51]). […]

C. freundii = conditions: Citrobacter freundii
Excerpt: as §1, §2

K. pneumoniae = test system: K. pneumoniae
Excerpt: as §1, §2

## CC(C)(O/N=C(\C(=O)N[C@@H]1C(=O)N2C(C(=O)[O-])=C(C[n+]3ccccc3)CS[C@H]12)c1csc(N)n1)C(=O)O [CAZ]
P. aeruginosa
  MIC: 64 µg/mL
P. aeruginosa; Pseudomonas aeruginosa, ATCC27853, strain ATCC 27853, W.T., read-out: MIC
  MIC: 2 µg/mL
P. aeruginosa; Pseudomonas aeruginosa, strain 10.257, PDC-50, read-out: MIC
  MIC: ≥ 256 µg/mL
P. aeruginosa; Pseudomonas aeruginosa, strain 11.516, PDC-79, read-out: MIC
  MIC: 128 µg/mL
P. aeruginosa; Pseudomonas aeruginosa, strain 11.698, PDC-87, read-out: MIC
  MIC: ≥ 256 µg/mL
P. aeruginosa; Pseudomonas aeruginosa, strain 11.813, PDC-91, read-out: MIC
  MIC: ≥ 256 µg/mL
P. aeruginosa; Pseudomonas aeruginosa, strain 13.1716, PDC-74, read-out: MIC
  MIC: ≥ 256 µg/mL
P. aeruginosa; Pseudomonas aeruginosa, strain 13.1717, PDC-74, read-out: MIC
  MIC: ≥ 256 µg/mL
P. aeruginosa; Pseudomonas aeruginosa, strain 13.1737, PDC-80, read-out: MIC
  MIC: 128 µg/mL
P. aeruginosa; Pseudomonas aeruginosa, strain 13.1755, PDC-86, read-out: MIC
  MIC: ≥ 256 µg/mL
P. aeruginosa; Pseudomonas aeruginosa, strain 13.1760, PDC-77, read-out: MIC
  MIC: ≥ 256 µg/mL
P. aeruginosa; Pseudomonas aeruginosa, strain 13.1775, PDC-87, read-out: MIC
  MIC: ≥ 256 µg/mL
P. aeruginosa; Pseudomonas aeruginosa, strain 247.3D, VIM-2, read-out: MIC
  MIC: ≥ 256 µg/mL
P. aeruginosa; Pseudomonas aeruginosa, strain 1129, PDC, read-out: MIC
  MIC: 4 µg/mL
P. aeruginosa; Pseudomonas aeruginosa, strain 3615, PDC/TEM-1, read-out: MIC
  MIC: 32 µg/mL
P. aeruginosa; Pseudomonas aeruginosa, strain 5671, VIM-1, read-out: MIC
  MIC: 128 µg/mL
P. aeruginosa; Pseudomonas aeruginosa, strain 8273, PDC/TEM-1, read-out: MIC
  MIC: 16 µg/mL
P. aeruginosa; Pseudomonas aeruginosa, strain 164951, W.T., read-out: MIC
  MIC: 2 µg/mL
P. aeruginosa; Pseudomonas aeruginosa, strain 377860, W.T., read-out: MIC
  MIC: 4 µg/mL
P. aeruginosa; Pseudomonas aeruginosa, strain 384743, PDC/TEM-1, read-out: MIC
  MIC: 16 µg/mL
P. aeruginosa; Pseudomonas aeruginosa, strain 1071703, GES-6, read-out: MIC
  MIC: 64 µg/mL
P. aeruginosa; Pseudomonas aeruginosa, strain 1113755, GES-5, read-out: MIC
  MIC: ≥ 256 µg/mL
P. aeruginosa; Pseudomonas aeruginosa, strain 1138223, GES-19, read-out: MIC
  MIC: ≥ 256 µg/mL
P. aeruginosa; Pseudomonas aeruginosa, strain 1138337, GES-19, read-out: MIC
  MIC: ≥ 256 µg/mL
P. aeruginosa; Pseudomonas aeruginosa, strain 1258509, GES-6, read-out: MIC
  MIC: 64 µg/mL
P. aeruginosa; Pseudomonas aeruginosa, strain 1275655, GES-20, read-out: MIC
  MIC: ≥ 256 µg/mL
P. aeruginosa; Pseudomonas aeruginosa, strain 1300089, GES-19, read-out: MIC
  MIC: ≥ 256 µg/mL
P. aeruginosa; Pseudomonas aeruginosa, strain PA2, W.T., read-out: MIC
  MIC: 4 µg/mL
P. aeruginosa; Pseudomonas aeruginosa, strain PAA1-9G1, GES-5, read-out: MIC
  MIC: ≥ 256 µg/mL
P. aeruginosa; Pseudomonas aeruginosa, strain PAA1-9G2, GES-5, read-out: MIC
  MIC: ≥ 256 µg/mL
P. aeruginosa; Pseudomonas aeruginosa, strain PS-12, VIM-2, read-out: MIC
  MIC: 64 µg/mL
P. aeruginosa; Pseudomonas aeruginosa, strain PS-32, VIM-2, read-out: MIC
  MIC: 16 µg/mL
P. aeruginosa; Pseudomonas aeruginosa, strain Paeβ-04, 100-fold ↑ PDC-2/30% OprD/5.6x ↑ABM, read-out: MIC
  MIC: 32 µg/mL
P. aeruginosa; Pseudomonas aeruginosa, strain Paeβ-10, 67-fold ↑ PDC-2/0.1% OprD/5.7x↑ABM, read-out: MIC
  MIC: 32 µg/mL
P. aeruginosa; Pseudomonas aeruginosa, strain Paeβ-15, 310-fold ↑ PDC-2/10% OprD/4.4x↑XYM, read-out: MIC
  MIC: 64 µg/mL
P. aeruginosa; Pseudomonas aeruginosa, strain Paeβ-17, 62-fold ↑PDC-3/30% OprD/10.2x and 9.9x ↑XYM and CDJ, read-out: MIC
  MIC: 64 µg/mL
P. aeruginosa; Pseudomonas aeruginosa, strain Paeβ-18, 600-fold ↑ PDC-3/<0.01% OprD/3.9x and 5.6x ↑ABM and XYM, read-out: MIC
  MIC: ≥ 256 µg/mL
P. aeruginosa; Pseudomonas aeruginosa, strain Paeβ-21, 200-fold ↑ PDC-4/10% OprD/13.5x ↑XYM, read-out: MIC
  MIC: 64 µg/mL
P. aeruginosa; Pseudomonas aeruginosa, strain Ps296, VIM-2, read-out: MIC
  MIC: 64 µg/mL
C. freundii; strain 134390, AmpC/TEM-1
  MIC: 16 µg/mL
C. freundii; strain 241181, AmpC/TEM-163
  MIC: 8 µg/mL
K. pneumoniae
  MIC: 64 µg/mL
K. pneumoniae; Klebsiella pneumoniae, strain 6299, OXA-163, read-out: MIC
  MIC: 128 µg/mL
K. pneumoniae; Klebsiella pneumoniae, strain 178279, SHV-12/TEM-1/AmpC, read-out: MIC
  MIC: 128 µg/mL
K. pneumoniae; Klebsiella pneumoniae, strain 196477, AmpC, read-out: MIC
  MIC: ≥ 256 µg/mL
K. pneumoniae; Klebsiella pneumoniae, strain 212027, AmpC/FOX-5/TEM-1, read-out: MIC
  MIC: 128 µg/mL
K. pneumoniae; Klebsiella pneumoniae, strain 515746, OXA-48, read-out: MIC
  MIC: 64 µg/mL
K. pneumoniae; Klebsiella pneumoniae, strain 664438, OXA-48, read-out: MIC
  MIC: 128 µg/mL
K. pneumoniae; Klebsiella pneumoniae, strain 664439, OXA-48, read-out: MIC
  MIC: 128 µg/mL
K. pneumoniae; Klebsiella pneumoniae, strain 722870, OXA-48, read-out: MIC
  MIC: 64 µg/mL
K. pneumoniae; Klebsiella pneumoniae, strain 752334, OXA-48, read-out: MIC
  MIC: 128 µg/mL
K. pneumoniae; Klebsiella pneumoniae, strain 769972, OXA-48, read-out: MIC
  MIC: 64 µg/mL
K. pneumoniae; Klebsiella pneumoniae, strain 787422, OXA-48, read-out: MIC
  MIC: 8 µg/mL
K. pneumoniae; Klebsiella pneumoniae, strain 856819, SHV-11/VIM-1, read-out: MIC
  MIC: ≥ 256 µg/mL
